# From patent US8026211B2, “Methods and formulations for increasing intestinal function” (Technion Research & Development Foundation Ltd., priority 2004, dated 2011)
# What was measured:
# [1] = system: rat model of short bowel syndrome; assay: Rat model of SBS: histology, villus height and crypt depth; assay type: in vivo
# Protocol: Animal treatment: Animals were obtained from the Rappaport Faculty of Medicine (Technion, Haifa, Israel). Male rats weighing 240-260 g were kept in individual stainless steel cages at constant temperature and humidity, and a 12-hour light-dark cycle was maintained. Rats were fasted 12 hours prior to the experiment with free access to water. Animals underwent one of two surgical procedures: bowel transection and re-anastomosis or 75% bowel resection and anastomosis. General anesthesia was induced with Pentobarbital (IP 40 mg/kg). Using sterile techniques, the abdomen was opened using a midline incision. In sham rats, simple bowel transection and end-to-end re-anastomosis was performed 15 cm proximal to ileo-cecal junction. In SBS animals, small bowel was resected from a point 5 cm distal to the ligament of Treitz to a point 10 cm proximal to the ileo-cecal junction. Bowel continuity was restored by end-to-end anastomosis using 5-0 Vicryl interrupted sutures. For all operations, the abdominal cavity was closed in two layers with a running suture of 3-0 Dexon. Prior to closure of the abdomen, the rats were resuscitated with a 3 ml intraperitoneal injection of warm normal saline. Rats were fasted for 24 hours but were allowed free access to water.
# Group C—SBS-Insulin (SBS-INS, n=13) rats underwent bowel resection and were fed regular chow diet and water containing insulin (ACTRAPID insulin, NOVO NORDISK, Denmark) at concentration of 1 u/ml. Food and fluid intake of animals were monitored as well as weight for a period of 14 days following treatment after which the animals were sacrificed following intraperitoneal injection of pentobarbital (75 mg/kg).
# Segments of small bowel were fixed for 24 hours in 10% formalin and processed into standard paraffin blocks. Five-micron tissue slices stained with hematoxylin-eosin. The sections were studied microscopically using a micrometer eyepiece. Histological images were loaded on a 760×570 pixels resolution buffer using a computerized image analysis system composed of a trichip RGB video-camera (Sony, Japan), installed on a light microscope (Zeiss, Germany) and attached to an IBM compatible personal computer (Pentium III, MMX, 450 mhz, 125 MB RAM), equipped with a frame grabber. […] The villus height and crypt depth were measured using the Image Pro Plus 4 image analysis software (Media Cybernetics, Baltimore, Md., USA). Ten villi and crypts in each section were measured and the mean reading was recorded in microns.
# [2] = system: ischemia-reperfusion (IR) injury in rats; assay: Rat ischemia-reperfusion injury: intestinal histology (villus height, crypt depth, Park's injury grade); assay type: in vivo
# Protocol: Surgical procedure: Following overnight fasting, the animals were anesthetized with intraperitoneal injection of pentobarbital (IP 40 mg/kg). Using sterile techniques, the abdomen was opened using a midline incision. […] IR underwent laparotomy, mobilization and occlusion of SMA and portal vein by vascular clamp for 30 minutes followed by a reperfusion period of 24 hours. Before closure of the abdomen, the rats were resuscitated with a 3-ml intraperitoneal injection of warm 0.9% saline. For all operations, the abdominal cavity was closed in two layers with a running suture of Dexon “S” Polyglycolic Acid 3/0. Rats were allowed free access to water and food. Twenty-four hours later, the rats were anesthetized with intraperitoneal pentobarbital (75 mg/kg) and were sacrificed by open pneumothorax.
# Intestinal Histology: Intestinal samples from the proximal jejunum and distal ileum were fixed in 10% formalin, dehydrated in progressive concentrations of ethanol, cleared in xylene, and embedded in paraffin wax. Deparaffinized […] sections were stained with haematoxylin and eosin. Ten villi and crypts were selected for the microscopic analysis, using a 10×4 magnifying lens. Histological images were loaded on a 760×570 pixels resolution buffer using a computerized image analysis system composed of a trichip RGB video-camera (Sony, Japan), installed on a light microscope (Zeiss, Germany) and attached to an IBM compatible personal computer (Pentium III, MMX, 450 mhz, 125 MB RAM), equipped with a frame grabber. […] The villus height and crypt depth were measured using the Image Pro Plus 4 image analysis software (Media Cybernetics, Baltimore, Md., USA).
# The degree of intestinal tissue injury was evaluated on a grading scale from 0 to 8 as described previously by Park et al., [Surgery. 107: 574, 1990]: 0—normal mucosa, 1—subepithelial space at villus tip, 2—more extended subepithelial space, 3—epithelial lifting along villus sides, 4—denuded villi, 5—loss of villus tissue, 6—crypt layer infarction, 7—transmucosal infarction, 8—transmural infarction.
# [3] = SBS-insulin rats vs SBS-untreated, 14 days, p<0.05
substance,measurement,setting,value
insulin,villi height in jejunum,"[1]; SBS rats, oral insulin, vs SBS-untreated",not associated with an increase
same,increase in ileal crypt depth,[1]; [3],40%
same,increase in ileal villus height,[1]; [3],15%
same,increase in jejunal crypt depth,[1]; [3],15%
same,intestinal injury grade (Park's criteria) in jejunum and ileum,"[2]; IR rats, oral insulin, vs IR-animals",did not significantly change
same,ileal crypt depth,"[2]; insulin treated IR rats, IR 131±7, p<0.05",219±11 μm
same,jejunal crypt depth,"[2]; insulin treated IR rats, IR 167±8, p<0.05",264±13 μm
same,ileal villus height,"[2]; insulin treated IR rats, IR 225±25, p<0.05",421±40 μm
same,jejunal villus height,"[2]; insulin treated IR rats, IR 341±29, p<0.05",622±91 μm
